The text below walks through data of patent publication US20210244028A1, “TREATMENT FOR REMOVING ECTOPARASITES FROM FISH” (priority 2018, published 2021).

Assay [1] has as its system Lepeophtheirus salmonis. The conditions noted are these: for percentage of sea lice that dropped from treated fish at the end of the treatment period / knockdown times (mean±SEM) / percentage of lice for which their knockdown time equalled that of the exposure time: 20 ppm (nitenpyram 19 ppm); for percentage of sea lice that dropped from treated fish at the end of the treatment period: culled fish; for knockdown times (mean±SEM) / percentage of lice for which their knockdown time equalled that of the exposure time: * only one louse knocked down. The procedure: The fish were acclimatised until normal feeding behaviour resumed, up to a maximum of 10 days, prior to challenge. The fish were housed in 750 litre tanks at a stocking density of no greater than 35 kg/m3. Tanks were provided with a continuous supply of seawater at a flow rate greater than 5 L/min at a temperature of 4.8-10.4° C. The photoperiod was set at 12 hours light: 12 hours dark.
The fish were challenged in a static bath with copepodid instar of Lepeophtheirus salmonis with the appearance of egg strings freshly removed from adult female lice at a target titre of 1,250-1,700 copepodids per tank
Egg strings were harvested from gravid sea lice and incubated in upwelling chambers until nauplii eclosion. Nauplii were allowed to moult through to the copepodid instar (5 days at approx. 10° C.) and then the tank water was filtered through a 100 μm mesh before re-suspending the copepodids in 225 mL of sea water. A 25 mL sample was removed which was then split into 1-2 mL samples in a 24-well plate and the nauplii/copepodids were counted under a stereo microscope. When abundance was sufficient and a minimum of 80% were copepodids the fish were challenged for 8 hours under static flow in the dark.
Fish were randomly selected from tanks, lightly sedated in a 90 ppm MS222 solution sufficient only to induce loss of equilibrium before being sacrificed by a non-recoverable blow to the head. Between 4 and 33 fish were required per treatment.
Culled fish were then suspended in treatment tanks. Fish were suspended in the tank horizontally from cable ties (one through the opercular cavity, one around the peduncle) and wire attached to a wooden rod). One 20 L tank of test item at 20 ppm was used per day. Lice on culled fish were exposed for either 5, 10, 15, 30 or 60 minutes (negative control was only exposed for 60 minutes as this would cover the longest exposure period to be tested). The order within treatment was randomised.
(§1) Lice were monitored continuously for the duration of the exposure and behavioural observations noted, including detachment of lice from fish. At the end of exposure lice were either removed from the tank or fish, placed into small vented plastic screw-top containers (125 mL, LDPE, 25 mm hole drilled into lid and secured with 200 μm mesh), and transferred to a clean tank supplied with filtered sea water and held there for 24 h. Lice which had detached from fish were kept separate from those that had not detached.
On the day of exposure, 200 mg of the test ectoparasite treatments was added to 1 L of sea water. Only 192 mg of nitenpyram was supplied. The solution was mechanically stirred for 30 minutes, using a stirring plate and magnetic flea (VWR), at a speed sufficient to generate a strong vortex to ensure a homogenous solution. This was then transferred into an approx. 25 L clear plastic tank containing 9 L of sea water. The solution was then mixed for a further 10 minutes using a small pump (Fluval Sea CP1), which was then removed from the tank prior to addition of fish.
Each treatment requiring 1 to 4 fish per individual treatment per replicate and 2 to 13 fish per group per replicate. Treatments with negative control (sea water), dinotefuran, clothianidin and thiamethoxam were replicated twice, and for imidacloprid three times. There was only one replicate per treatment for nitenpyram. The mean number of lice used per individual treatment was 5.5 to 10, with the mean per group being 6.2-7.2 lice.

Assay [2] relates to Lepeophtheirus salmonis. The settings on record: for percentage responsiveness of lice recovered from tank at treatment end at 24 hours post-treatment: lice knocked off fish. As for the experimental part:
as §1
24 h post-treatment lice were removed from the screw-top containers to check if they were alive and, if so, if they were responsive. Categories were defined as follows: alive—movement detected; responsive—alive and actively avoids stimulation in a coordinated manner; dead—no movement detected.
Lice defined as responsive could potentially re-attach to a fish. After assessment lice were transferred to 70% alcohol in case determination of instar and sex was required.

[3] abbreviates: exposure 5 min, 20 ppm (nitenpyram 19 ppm), 24 h post-treatment.
The mark [4] stands for this setting: exposure 10 min, 20 ppm (nitenpyram 19 ppm), 24 h post-treatment.
[5] abbreviates: exposure 15 min, 20 ppm (nitenpyram 19 ppm), 24 h post-treatment.
The mark [6] stands for this setting: exposure 15 min, 20 ppm (nitenpyram 19 ppm).
Where [7] appears, read: exposure 30 min, 20 ppm (nitenpyram 19 ppm), 24 h post-treatment.
[8] abbreviates: exposure 30 min, 20 ppm (nitenpyram 19 ppm).
Where [9] appears, read: exposure 60 min, 20 ppm (nitenpyram 19 ppm), 24 h post-treatment.
[10] abbreviates: exposure 60 min, 20 ppm (nitenpyram 19 ppm).

“And” between values parts separate entries of the source, which are not always exact repeats. Equal values may be shown once. Read-outs that look alike come from different tables or passages of the source.

Turning to `CN/C(=N\[N+](=O)[O-])NCc1cnc(Cl)s1` [clothianidin], the “percentage of sea lice that dropped from treated fish at the end of the treatment period” value (“percentage of sea lice that dropped” below) in the assay with Lepeophtheirus salmonis [1] (exposure 5 min) was found to be 0%; in the assay on Lepeophtheirus salmonis [1] (exposure 10 min), 0%; in the assay with Lepeophtheirus salmonis [1] (exposure 15 min) it was 9.1%; in the assay with Lepeophtheirus salmonis [1] (exposure 30 min) it was 69.2%; in the assay on Lepeophtheirus salmonis [1] (exposure 60 min), 54.5%. Moreover, the “knockdown times (mean±SEM)” value is 900* seconds in the assay with Lepeophtheirus salmonis [1] (exposure 15 min), 1706 ± 71 s with Lepeophtheirus salmonis [1] (exposure 30 min) and 2289 ± 424 s in the assay with Lepeophtheirus salmonis [1] (exposure 60 min). Besides, the “percentage of lice for which their knockdown time equalled that of the exposure time” value (shortened to “percentage of lice”) in the assay on Lepeophtheirus salmonis [1] (exposure 15 min) is on record as 100* %; with Lepeophtheirus salmonis [1] (exposure 30 min) it was 77.8%; in the assay with Lepeophtheirus salmonis [1] (exposure 60 min), 33.3%. Also, the “percentage responsiveness for sea lice recovered from fish at the end of the treatment period” value worked out at 100% with Lepeophtheirus salmonis [2] (setting [3]); 93% with Lepeophtheirus salmonis [2] (setting [4]); 90% with Lepeophtheirus salmonis [2] (setting [5]); 75% in the assay with Lepeophtheirus salmonis [2] (setting [7]); 100% with Lepeophtheirus salmonis [2] (setting [9]). The figures for the “percentage responsiveness of lice recovered from tank at treatment end at 24 hours post-treatment” value in the assay on Lepeophtheirus salmonis [2] (setting [6]), in the assay with Lepeophtheirus salmonis [2] (setting [8]) and in the assay with Lepeophtheirus salmonis [2] (setting [10]) were 0%, 44% and 33%, respectively.

Regarding `CN/C(=N/CC1CCOC1)N[N+](=O)[O-]` (centres unmarked) [dinotefuran], the “percentage of sea lice that dropped” value in the assay on Lepeophtheirus salmonis [1] (exposure 5 min) was determined as 0%; in the assay with Lepeophtheirus salmonis [1] (exposure 10 min), 0%; in the assay on Lepeophtheirus salmonis [1] (exposure 15 min) it was 0%; in the assay on Lepeophtheirus salmonis [1] (exposure 30 min), 7.7%; in the assay with Lepeophtheirus salmonis [1] (exposure 60 min), 53.3%. Further, the “knockdown times (mean±SEM)” value in the assay with Lepeophtheirus salmonis [1] (exposure 15 min) is 900* seconds; in the assay with Lepeophtheirus salmonis [1] (exposure 30 min), 1800* seconds; in the assay on Lepeophtheirus salmonis [1] (exposure 60 min), 3109 ± 224 s. The “percentage of lice” value is listed as 100* % in the assay on Lepeophtheirus salmonis [1] (exposure 15 min), 100* % in the assay with Lepeophtheirus salmonis [1] (exposure 30 min) and 25% in the assay on Lepeophtheirus salmonis [1] (exposure 60 min). Moreover, the “percentage responsiveness for sea lice recovered from fish at the end of the treatment period” value in the assay on Lepeophtheirus salmonis [2] was 88% and 73% and 100% and 69% and 83%. Also, the “percentage responsiveness of lice recovered from tank at treatment end at 24 hours post-treatment” value in the assay on Lepeophtheirus salmonis [2] (setting [6]) is recorded as 100%; in the assay with Lepeophtheirus salmonis [2] (setting [8]), 0%; with Lepeophtheirus salmonis [2] (setting [10]) it was 71%.

Turning to `CCN(Cc1ccc(Cl)nc1)/C(=C/[N+](=O)[O-])NC` [nitenpyram], the “percentage of sea lice that dropped” value in the assay on Lepeophtheirus salmonis [1] (exposure 5 min) came out at 0%; with Lepeophtheirus salmonis [1] (exposure 10 min) it was 0%; in the assay with Lepeophtheirus salmonis [1] (exposure 15 min) it was 16.7%; in the assay on Lepeophtheirus salmonis [1] (exposure 30 min), 0%; in the assay on Lepeophtheirus salmonis [1] (exposure 60 min) it was 14.3%. The “knockdown times (mean±SEM)” value in the assay on Lepeophtheirus salmonis [1] (exposure 15 min) was 900* seconds; in the assay on Lepeophtheirus salmonis [1] (exposure 60 min), 3600* seconds. Moreover, the “percentage of lice” value with Lepeophtheirus salmonis [1] (exposure 15 min) and in the assay on Lepeophtheirus salmonis [1] (exposure 60 min) was 100* % throughout. The “Responsiveness of lice still on fish at end of exposure” value with Lepeophtheirus salmonis [2] (all exposure durations (5-60 min), 19 ppm) is “unaffected at all exposure durations”. The “percentage responsiveness for sea lice recovered from fish at the end of the treatment period” value with Lepeophtheirus salmonis [2] (setting [3]), in the assay on Lepeophtheirus salmonis [2] (setting [4]), in the assay with Lepeophtheirus salmonis [2] (setting [5]), with Lepeophtheirus salmonis [2] (setting [7]) and in the assay on Lepeophtheirus salmonis [2] (setting [9]) was 100% in each case. The “percentage responsiveness of lice recovered from tank at treatment end at 24 hours post-treatment” value in the assay on Lepeophtheirus salmonis [2] (setting [6]) and in the assay with Lepeophtheirus salmonis [2] (setting [10]) was 0% throughout.

`CN1COCN(Cc2cnc(Cl)s2)/C1=N\[N+](=O)[O-]` [thiamethoxam]: the Knockdown effect entry in the assay with Lepeophtheirus salmonis [1] (20 ppm, exposure 5 to 60 minutes) is given as “No knockdown”. Also, the “percentage of sea lice that dropped” value in the assay with Lepeophtheirus salmonis [1] (exposure 5 min), in the assay with Lepeophtheirus salmonis [1] (exposure 10 min), in the assay on Lepeophtheirus salmonis [1] (exposure 15 min), with Lepeophtheirus salmonis [1] (exposure 30 min) and in the assay on Lepeophtheirus salmonis [1] (exposure 60 min) was 0% each time. For the same compound, the “percentage responsiveness for sea lice recovered from fish at the end of the treatment period” value is 100% in the assay with Lepeophtheirus salmonis [2] (setting [3]); 100% with Lepeophtheirus salmonis [2] (setting [4]); 100% with Lepeophtheirus salmonis [2] (setting [5]); 100% in the assay on Lepeophtheirus salmonis [2] (setting [7]); 92% with Lepeophtheirus salmonis [2] (setting [9]).
